Where a name gives a salt, the structure may show the parent alone. Read-outs that look alike come from different tables or passages of the source.
What was measured:
in vivo = conditions: Lewis, rat, po
Procedure: (§1) Chronic, T-cell dependent, erosive arthritis was severe by day 20 at which time twice daily oral dosing was commenced until sacrificed on day 32 to determine if the compound of Example 15 (hereinafter, Compound A) can reverse established disease.
(§2) Compound A was formulated in 5% solutol, 5% ethanol, 90% water. The dose volume was 5 ml/kg.
Exposure: Two hours following the last dose of 3, 10 and 20 mpk, plasma levels of Compound A were 247±22, 802±35, and 1475±70 ng/ml, respectively (mean±SEM).

[1] = tested on: streptococcal cell wall (SCW) model of arthritis in rats; assay: SCW arthritis in rats (chronic phase, therapeutic dosing); assay type: in vivo, rat; conditions: for Number of steps taken using hind limbs in a thirty second observation period: average of three rats
Text: Purpose: A polyarthritis occurs in female Lewis rats following i.p. administration of streptococcal cell wall (SCW) components. The model has an acute non-erosive phase (days 3-7) that is complement and neutrophil dependent and which resolves. A chronic erosive phase begins at about day ten and is dependent on the development of specific T cell immunity to SCW, and possibly to self-antigens. The SCW-induced model has been used less frequently for pharmaceutical testing than the adjuvant-induced or collagen-induced models of arthritis, but each model predicts accurately the anti-inflammatory potential of TNF-inhibitors. The chronic phase of the SCW model is macrophage dependent.
Method: Female Lewis rats (80-100 gm each) were purchased from Charles River. Streptococcal cell wall peptidoglycan-polysaccharide polymers (PG-PS 10S) were purchased from BD (Cat#210866). PG-PS 10S was vortexed for 30 seconds to thoroughly mix the material and sonicated at low energy levels (level 6) for 3 min with a probe type sonicator prior to injection. On day 0, sixty rats were anesthetized using isoflurane, and injected i.p. with 15 μg of rhamnose/gram body weight (BW) in the lower left quadrant of the abdomen. Ten rats were treated in a similar manner with sterile saline.
as §1, §2
Left and right hind ankles of each rat were measured with calipers every day for the first six days (post-injection) and then at least every two or three days for the remainder of the study. Ankles were assigned a clinical score based on erythema and swelling as follows: 1=ankle only; 2=ankle and proximal half of tarsal joint; 3=ankle and entire tarsal joint; 4=involvement of the entire paw including digits. Animal scores represented the sum of the two hind paws.
Disease reversal was accompanied by restoration of function. To assess function, three representative rats per group were videotaped for thirty seconds on days 19 and 32, and steps taken with hind limbs were counted and reported in Table 3. On day 19 following SCW, rats ambulated primarily using front paws. Hind paws were nearly immobilized.

[2] = tested on: mouse bone-marrow derived macrophages; assay: CSF-1-driven mouse bone-marrow derived macrophages assay (BrDU incorporation); assay type: cell-based; conditions: CSF-1-driven proliferation, 30 hrs culture
Procedure: Macrophages were derived by culturing mouse bone marrow in alpha-MEM supplemented with 10% FCS and 50 ng/ml recombinant mouse CSF-1 in bacteriologic dishes. On the sixth day, macrophages were detached from dishes, washed, and resuspended to 0.05 million cells/ml in alpha-MEM containing 10% FCS. One hundred ul of cell suspension were distributed per well into 96 well culture plates. Wells were further supplemented with the addition of 50 ul media containing 15 ng/ml CSF-1, 3 uM Indomethacin, and 3× of a dilution series of test compounds. The cells were cultured for 30 hrs at 37 degrees and 5% CO2. During the final six hours, cultures were supplemented with an additional 30 ul of media containing a 1:500 dilution of bromodeoxyuridine (BrDU). At the end of the culture period, the plates were spun at 1000 RPM for 1 minute and 130 ul of media was removed with a pipet and replaced with 150 ul of fixative solution for 1 hour@room temperature. The fixative was then dispelled from the plates and the plates allowed to air dry. Incorporation of BrDU into the fixed, dried cells was quantified using a specific ELISA.

c-fms = c-fms (Homo sapiens (Human), UniProt P07333); assay: Autophosphorylation fluorescence polarization competition immunoassay for c-fms inhibition; assay type: biochemical; conditions: 10 nM c-fms, 1 mM ATP; average of three independent measurements
c-fms, sequence (P07333 20-972): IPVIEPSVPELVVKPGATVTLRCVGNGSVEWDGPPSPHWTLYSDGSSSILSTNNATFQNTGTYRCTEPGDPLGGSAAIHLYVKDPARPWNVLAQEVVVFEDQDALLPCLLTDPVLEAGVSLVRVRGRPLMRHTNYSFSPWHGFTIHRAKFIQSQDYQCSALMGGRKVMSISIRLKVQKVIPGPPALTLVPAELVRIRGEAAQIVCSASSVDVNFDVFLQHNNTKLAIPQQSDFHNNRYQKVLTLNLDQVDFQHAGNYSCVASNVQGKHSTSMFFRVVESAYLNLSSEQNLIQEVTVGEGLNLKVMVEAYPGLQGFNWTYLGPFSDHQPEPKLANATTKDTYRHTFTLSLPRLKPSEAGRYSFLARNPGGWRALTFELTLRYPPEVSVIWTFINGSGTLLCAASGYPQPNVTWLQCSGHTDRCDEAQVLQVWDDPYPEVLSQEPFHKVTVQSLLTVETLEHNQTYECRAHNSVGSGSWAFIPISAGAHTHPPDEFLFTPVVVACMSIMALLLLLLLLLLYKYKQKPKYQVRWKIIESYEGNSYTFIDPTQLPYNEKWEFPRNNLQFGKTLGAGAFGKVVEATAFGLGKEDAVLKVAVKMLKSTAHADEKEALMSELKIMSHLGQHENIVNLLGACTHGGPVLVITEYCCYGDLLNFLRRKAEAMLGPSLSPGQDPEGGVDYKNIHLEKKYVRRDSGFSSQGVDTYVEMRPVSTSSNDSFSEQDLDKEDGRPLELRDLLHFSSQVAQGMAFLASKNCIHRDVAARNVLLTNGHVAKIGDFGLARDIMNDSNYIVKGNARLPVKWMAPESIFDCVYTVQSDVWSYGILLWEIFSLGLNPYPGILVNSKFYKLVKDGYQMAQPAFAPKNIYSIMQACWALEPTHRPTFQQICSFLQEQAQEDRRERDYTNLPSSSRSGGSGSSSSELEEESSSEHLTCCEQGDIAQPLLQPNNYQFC
Procedure: The assay buffer used was 100 mM 4-(2-hydroxyethyl)piperazine1-ethanesulfonic acid (HEPES), pH 7.5, 1 mM 1,4-dithio-DL-threitol (DTT), 0.01% (v/v) Tween-20. Compounds were diluted in assay buffer containing 4% dimethylsulfoxide (DMSO) just prior to the assay. […] The kinase reaction was initiated by adding 2 μL of 5 mM ATP (Sigma) in assay buffer. The final concentrations in the assay were 10 nM c-fms, 1 mM ATP, 5 mM MgCl2, 2% DMSO. Control reactions were ran in each plate: in positive and negative control wells, assay buffer (made 4% in DMSO) was substituted for the compound; in addition, positive control wells received 1.2 μL of 50 mM ethylenediaminetetraaceticacid (EDTA). The plates were incubated at room temperature for 45 min. At the end of the incubation, the reaction was quenched with 1.2 μL of 50 mM EDTA (EDTA was not added to the positive control wells at this point; see above). Following a 5-min incubation, each well received 10 μL of a 1:1:3 mixture of anti-phosphotyrosine antibody, 10×, PTK green tracer, 10× (vortexed), FP dilution buffer, respectively (all from PanVera, cat. # P2837). The plate was covered, incubated for 30 min at room temperature and the fluorescence polarization was read on the Analyst. The instrument settings were: 485 nm excitation filter; 530 nm emission filter; Z height: middle of well; G factor: 0.93. […] The reported IC50 values are averages of three independent measurements.

Row | Structure (SMILES) | IC50 ([2]; Mus musculus, BMDM) | IC50 (c-fms) | other results
1 | CC1(C)CC=C(c2nc(C3CC(C)(C)OC(C)(C)C3)ccc2NC(=O)c2nc(C#N)c[nH]2)CC1 [Example 15, 4-Cyano-1H-imidazole-2-carboxylic acid[2-(4,4-dimethyl-cyclohex-1-enyl)-6-(2,2,6,6-tetramethyl-tetrahydro-pyran-4-yl)-pyridin-3-yl]-amide] | 6.1 nM |  | concentration at 2 h (in vivo; 3 mg/kg): 247 ± 22 ng/mL; concentration at 2 h (in vivo; 10 mg/kg): 802 ± 35 ng/mL; concentration at 2 h (in vivo; 20 mg/kg): 1480 ± 70 ng/mL; Number of steps taken using hind limbs in a thirty second observation period ([1]; Day 19 (before treatment), 3 mg/kg group): 1.7; Number of steps taken using hind limbs in a thirty second observation period ([1]; Day 19 (before treatment), 10 mg/kg group): 1.3; Number of steps taken using hind limbs in a thirty second observation period ([1]; Day 19 (before treatment), 20 mg/kg group): 1.3; Number of steps taken using hind limbs in a thirty second observation period ([1]; Day 32, 3 mg/kg oral b.i.d.): 7.7; Number of steps taken using hind limbs in a thirty second observation period ([1]; Day 32, 10 mg/kg oral b.i.d.): 7.3; Number of steps taken using hind limbs in a thirty second observation period ([1]; Day 32, 20 mg/kg oral b.i.d.): 6; use of hind limbs (function) ([1]; day 32, rats treated with Compound A): used hind limbs in a normal fashion; paw swelling (caliper measurements of paw thickness and visual scores) ([1]; dosing p.o. b.i.d. initiated on day 20 after disease was severe, 3, 10, 20 mpk): caused a reversal of paw swelling
2 | C[C@]12CC(c3ccc(NC(=O)c4nc(C#N)c[nH]4)c(C4=CCCCC4)n3)C[C@](C)(O1)[C@H](O)[C@@H]2O (stereo partly drawn) [Example 19, 4-Cyano-1H-imidazole-2-carboxylic acid[2-cyclohex-1-enyl-6-[(3-exo)-(6-exo,7-exo-dihydroxy-1,5-dimethyl-8-oxa-bicyclo[3.2.1]oct-3-yl]-pyridin-3-yl]-amidetrifluoroacetic acid salt and 4-Cyano-1H-imidazole-2-carboxylic acid[2-cyclohex-1-enyl-6-[(3-endo)-(6-exo,7-exo-dihydroxy-1,5-dimethyl-8-oxa-bicyclo[3.2.1]oct-3-yl]-pyridin-3-yl]-amidetrifluoroacetic acid salt] | 27 nM | 2.9 nM | 
3 | CC1(C)CC=C(c2nc(C3C[C@](C)(CO)O[C@](C)(CO)C3)ccc2NC(=O)c2nc(C#N)c[nH]2)CC1 (stereo partly drawn) [Example 20, 4-Cyano-1H-imidazole-2-carboxylic acid[(4-cis)-(2-cis,6-cis-bis-hydroxymethyl-2,6-dimethyl-tetrahydro-pyran-4-yl)-2-(4,4dimethyl-cyclohex-1-enyl)-pyridin-3-yl]-amide trifluoroacetic acid salt and 4-Cyano-1H-imidazole-2-carboxylic acid[(4-trans)-(2-cis,6-cis-bis-hydroxymethyl-2,6-dimethyl-tetrahydro-pyran-4-yl)-2-(4,4-dimethyl-cyclohex-1-enyl)-pyridin-3-yl]-amide trifluoroacetic acid salt] | 6.5 nM | 0.41 nM | 
4 | CC1(C)CC=C(c2nc(C3CC(C)(C)S(=O)(=O)C(C)(C)C3)ccc2NC(=O)c2nc(C#N)c[nH]2)CC1 [Example 21, 4-Cyano-1H-imidazole-2-carboxylic acid[2-(4,4-dimethyl-cyclohex-1-enyl)-6-(2,2,6,6-tetramethyl-1,1-dioxo-hexahydro-1λ^6-thiopyran-4-yl)-pyridin-3-yl]-amide] | 18 nM | 8.9 nM | 
5 | CC1(C)CC=C(c2cc(C3CC(C)(C)S(=O)(=O)C(C)(C)C3)ccc2NC(=O)c2nc(C#N)c[nH]2)CC1 [Example 22, 4-Cyano-1H-imidazole-2-carboxylic acid[2-(4,4-dimethyl-cyclohex-1-enyl)-4-(2,2,6,6-tetramethyl-1,1-dioxo-hexahydro-1λ^6-thiopyran-4-yl)-phenyl]-amide] | 3.6 nM | 2 nM | 
6 | CC1(C)CC=C(c2cc(C3=C[C@@H]4C=C[C@H](C3)O4)ccc2NC(=O)c2ncc(C#N)[nH]2)CC1 [Example 26, N-(4-(8-oxabicyclo[3.2.1]octa-2,6-dien-3-yl)-2-(4,4-dimethylcyclohex-1-enyl)phenyl)-4-cyano-1H-imidazole-2-carboxamide (A) and N-(4-(8-oxabicyclo[3.2.1]octa-3,6-dien-3-yl)-2-(4,4dimethylcyclohex-1-enyl)phenyl)-4cyano-1H-imidazole-2-carboxamide (B)] |  | 7.1 nM | IC50 ([2]; read-out: BMDM IC50): 59 nM
7 | CC1(C)CC=C(c2cc([C@@]3(O)CC4C=C[C@H](C3)O4)ccc2NC(=O)c2nc(C#N)c[nH]2)CC1 [Example 27, 4-Cyano-N-(2-(4,4-dimethylcyclohex-1-enyl)-4-((3-exo)-3-hydroxy-8-oxabicyclo[3.2.1]oct-6-en-3-yl)phenyl)-1H-imidazole-2-carboxamide] | 6.9 nM | 0.66 nM | 
8 | C[C@@H]1C2C=C[C@@H](O2)[C@H](C)[C@@]1(O)c1ccc(NC(=O)c2nc(C#N)c[nH]2)c(C2=CCC(C)(C)CC2)c1 [Example 28] | 69 nM | 16 nM | 
9 | C[C@@H]1C2CC[C@@H](O2)[C@H](C)[C@@]1(O)c1ccc(NC(=O)c2nc(C#N)c[nH]2)c(C2=CCC(C)(C)CC2)c1 [Example 29, 4-Cyano-N-(2-(4,4dimethylcyclohex-1-enyl)-4-[(3-exo)-3-hydroxy-(2-endo,4endo-dimethyl)-1,5-dimethyl-8-oxabicyclo[3.2.1]octan-3-yl)pheny]-1H-imidazole-2-carboxamide] | 88 nM | 14 nM | 
